{"source": "paper PMC9757755", "about": "“Mechanisms of ion selectivity and throughput in the mitochondrial calcium uniporter” (Science Advances, 2022)", "molecular_target": "T1, TcMCU-EMRE (TcMCU-EMREEM2) (Tribolium castaneum, UniProt D6WIX5)", "T1 construct": "gene MCU; MCU without N-terminal domain (residues 1-168 removed), covalently fused to EMRE by flexible peptide linker; tetramer; Venus fusion removed by PreScission cleavage; expressed in Expi293 cells; purified, reconstituted in liposomes and planar bilayer; with Essential MCU regulator, mitochondrial", "T1 sequence (D6WIX5 169-367)": "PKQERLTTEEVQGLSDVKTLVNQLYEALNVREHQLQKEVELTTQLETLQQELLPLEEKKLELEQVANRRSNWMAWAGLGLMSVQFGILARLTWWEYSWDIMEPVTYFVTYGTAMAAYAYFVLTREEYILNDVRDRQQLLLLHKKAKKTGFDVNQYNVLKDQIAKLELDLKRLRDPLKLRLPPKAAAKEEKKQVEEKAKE", "T1 sequence (D6X268 1-90 partner)": "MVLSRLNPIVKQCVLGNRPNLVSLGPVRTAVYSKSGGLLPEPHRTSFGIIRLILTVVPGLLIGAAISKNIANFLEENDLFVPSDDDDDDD", "assay": "planar lipid bilayer electrophysiology, inhibition of macroscopic Ca2+ currents", "format": "biochemical", "conditions": "symmetric 40 mM CaCl2, -160 mV, pH 7.6, 22-24 C; RuRed titrated in trans chamber with 1 uM RuRed in cis; IMS-side blocker", "data": [{"smiles": "Cl.Cl.Cl.Cl.Cl.Cl.N.N.N.N.N.N.N.N.N.N.N.N.N.N.[O-2].[O-2].[Ru+3].[Ru+3].[Ru+4]", "note": "[ruthenium red]", "values": [{"measurement": "IC50", "value": "~40", "unit": "nM"}]}]}
